The text below walks through data of patent US20160264536A1, “HETEROCYCLIC COMPOUND” (Takeda Pharmaceutical Company Limited, priority 2013, published 2016).

In this assay the target is T1, human PDE2A3 enzyme (Homo sapiens, UniProt O00408).
T1 construct: Human PDE2A3 full-length gene was transduced into Sf9; His-tag; made in house; host or cells: Sf9 insect cells
T1 sequence (O00408 whole entry): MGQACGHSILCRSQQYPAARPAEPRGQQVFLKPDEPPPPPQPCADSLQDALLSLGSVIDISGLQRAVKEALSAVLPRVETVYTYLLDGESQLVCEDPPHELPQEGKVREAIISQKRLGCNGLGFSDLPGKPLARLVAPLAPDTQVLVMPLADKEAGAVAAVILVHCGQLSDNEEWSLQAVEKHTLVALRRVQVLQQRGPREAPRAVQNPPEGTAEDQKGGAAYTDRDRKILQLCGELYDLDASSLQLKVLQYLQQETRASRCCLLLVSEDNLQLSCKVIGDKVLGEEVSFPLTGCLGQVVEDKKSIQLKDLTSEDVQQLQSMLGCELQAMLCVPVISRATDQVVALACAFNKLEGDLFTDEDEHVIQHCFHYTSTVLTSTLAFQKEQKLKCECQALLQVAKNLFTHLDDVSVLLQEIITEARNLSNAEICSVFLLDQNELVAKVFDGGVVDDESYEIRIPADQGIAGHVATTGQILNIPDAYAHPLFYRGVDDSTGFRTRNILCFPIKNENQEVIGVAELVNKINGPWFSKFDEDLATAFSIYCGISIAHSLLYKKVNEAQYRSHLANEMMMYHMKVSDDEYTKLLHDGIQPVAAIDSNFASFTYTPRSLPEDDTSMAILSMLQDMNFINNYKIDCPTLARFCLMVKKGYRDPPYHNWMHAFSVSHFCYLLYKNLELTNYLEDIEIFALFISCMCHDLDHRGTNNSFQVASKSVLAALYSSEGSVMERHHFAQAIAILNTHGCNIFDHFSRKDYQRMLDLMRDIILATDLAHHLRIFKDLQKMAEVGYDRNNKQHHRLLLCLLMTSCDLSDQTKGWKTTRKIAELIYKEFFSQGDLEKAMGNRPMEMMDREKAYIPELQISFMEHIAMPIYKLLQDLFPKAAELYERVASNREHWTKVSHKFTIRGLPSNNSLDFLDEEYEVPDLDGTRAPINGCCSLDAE
Description: PDE enzyme inhibitory assay (SPA, [3H]cGMP substrate). The format is biochemical. The note with it: compound 1 μM, substrate [3H]cGMP 77 nM, read-out: inhibitory rate (%) (1 μM). How it is done: PDE Enzyme Inhibitory Assay
Human PDE2A3 full-length gene was transduced into Sf9, and human PDE2A3 enzyme was purified by His-tag affinity column and gel filtration. The enzyme was stored at −70° C. until use. PDE activity was measured by using a SPA (Scintillation Proximity Assay) (GE Healthcare). To evaluate the inhibitory activity of the compound, 10 μl of serial diluted compounds were reacted with 20 μl of PDE enzyme in assay buffer (50 mM HEPES-NaOH, 8.3 mM MgCl2, 1.7 mM EGTA, 0.1% BSA (pH 7.4)) for 30 min at room temperature. Final concentration of DMSO in the reaction solution was 1%. Compounds were tested in duplicate in 96-well half-area plates (Corning) or 384-well OptiPlate (PerkinElmer). To start the reaction, 10 μl of substrate [^3H]cGMP (final concentration 77 nM, PerkinElmer) was added to a total volume of 40 μl. After reaction for 60 min at room temperature, 20 μl of 20 mg/mL yttrium SPA beads containing zinc sulfate was added to terminate the reaction. After being settled for further 1 hour, the assay plates were counted in a scintillation counter (PerkinElmer) to allow calculation of inhibition rate. Inhibition rate was calculated on the basis of 0% control wells with enzyme and DMSO, and 100% control wells without enzyme.
In the case of `COC[C@@H](NC(=O)c1cc(=O)[nH]c(N(C)C)n1)c1ccc(OC(F)(F)F)cc1` [Example 20, 2-(dimethylamino)-N-((1S)-2-methoxy-1-(4-(trifluoromethoxy)phenyl)ethyl)-6-oxo-1,6-dihydropyrimidine-4-carboxamide], the inhibition at 1 µM was determined as 98%.

Regarding `COC[C@@H](NC(=O)c1cc(=O)[nH]c(N(C)C)n1)c1ccc(OC(F)(F)F)c(F)c1` [Example 33, 2-(dimethylamino)-N-((1S)-1-(3-fluoro-4-(trifluoromethoxy)phenyl)-2-methoxyethyl)-6-oxo-1,6-dihydropyrimidine-4-carboxamide], the inhibition at 1 µM came out at 99%.

As for `COC[C@@H](NC(=O)c1cc(=O)[nH]c(N2CC[C@H](OC)C2)n1)c1ccc(OC(F)(F)F)cc1` [Example 45, 2-((3S)-3-methoxypyrrolidin-1-yl)-N-((1S)-2-methoxy-1-(4-(trifluoromethoxy)phenyl)ethyl)-6-oxo-1,6-dihydropyrimidine-4-carboxamide], the inhibition at 1 µM was determined as 97%.

For the molecule `COC[C@@H](NC(=O)c1cc(=O)[nH]c(N2CCCC2)n1)c1ccc(OC(F)(F)F)cc1` [Example 52, N-((1S)-2-methoxy-1-(4-(trifluoromethoxy)phenyl)ethyl)-6-oxo-2-(pyrrolidin-1-yl)-1,6-dihydropyrimidine-4-carboxamide], the inhibition at 1 µM came to 102%.

Take `COC[C@@H](NC(=O)c1cc(=O)[nH]c(N2CC(OC)C2)n1)c1ccc(OC(F)(F)F)cc1` [Example 55, 2-(3-methoxyazetidin-1-yl)-N-((1S)-2-methoxy-1-(4-(trifluoromethoxy)phenyl)ethyl)-6-oxo-1,6-dihydropyrimidine-4-carboxamide]: the inhibition at 1 µM was found to be 98%.

Take `COC[C@@H](NC(=O)c1cc(=O)[nH]c(N2CCCC2)n1)c1ccc(OC(F)(F)F)c(F)c1` [Example 61, N-((1S)-1-(3-fluoro-4-(trifluoromethoxy)phenyl)-2-methoxyethyl)-6-oxo-2-(pyrrolidin-1-yl)-1,6-dihydropyrimidine-4-carboxamide]: the inhibition at 1 µM is 98%.

Turning to `CC(C)(O)C(NC(=O)c1cc(=O)[nH]c(N2CCCC2)n1)c1ccc(OC(F)(F)F)c(F)c1` (stereo not drawn) [Example 62, N-(1-(3-fluoro-4-(trifluoromethoxy)phenyl)-2-hydroxy-2-methylpropyl)-6-oxo-2-(pyrrolidin-1-yl)-1,6-dihydropyrimidine-4-carboxamide], the inhibition at 1 µM was found to be 99%.

Turning to `COC[C@@H](NC(=O)c1cc(=O)[nH]c(N2CC[C@H](OC(C)C)C2)n1)c1ccc(OC(F)(F)F)cc1` [Example 67, 2-((3S)-3-isopropoxypyrrolidin-1-yl)-N-((1S)-2-methoxy-1-(4-(trifluoromethoxy)phenyl)ethyl)-6-oxo-1,6-dihydropyrimidine-4-carboxamide], the inhibition at 1 µM turned out to be 100%.

For `COC[C@@H](NC(=O)c1cc(=O)[nH]c(N2CC3CC(C2)O3)n1)c1ccc(OC(F)(F)F)c(F)c1` [Example 73, N-((1S)-1-(3-fluoro-4-(trifluoromethoxy)phenyl)-2-methoxyethyl)-2-(6-oxa-3-azabicyclo[3.1.1]hept-3-yl)-6-oxo-1,6-dihydropyrimidine-4-carboxamide], the inhibition at 1 µM stood at 99%.

For the molecule `CCN(C)c1nc(C(=O)N[C@H](COC)c2ccc(OC(F)(F)F)c(F)c2)cc(=O)[nH]1` [Example 76, 2-(ethyl(methyl)amino)-N-((1S)-1-(3-fluoro-4-(trifluoromethoxy)phenyl)-2-methoxyethyl)-6-oxo-1,6-dihydropyrimidine-4-carboxamide], the inhibition at 1 µM came to 101%.

As for `COC[C@@H](NC(=O)c1cc(=O)[nH]c(C(C)(C)C)n1)c1ccc(OC(F)(F)F)c(F)c1` [Example 80, 2-tert-butyl-N-((1S)-1-(3-fluoro-4-(trifluoromethoxy)phenyl)-2-methoxyethyl)-6-oxo-1,6-dihydropyrimidine-4-carboxamide], the inhibition at 1 µM stood at 94%.

As to `COC[C@@H](NC(=O)c1cc(=O)[nH]c(C2CC2)n1)c1ccc(OC(F)(F)F)c(F)c1` [Example 81, 2-cyclopropyl-N-((1S)-1-(3-fluoro-4-(trifluoromethoxy)phenyl)-2-methoxyethyl)-6-oxo-1,6-dihydropyrimidine-4-carboxamide], the inhibition at 1 µM came to 93%.

On to `COC[C@@H](NC(=O)c1cc(=O)[nH]c(C2=CCCC2)n1)c1ccc(OC(F)(F)F)c(F)c1` [Example 83, 2-(cyclopent-1-en-1-yl)-N-((1S)-1-(3-fluoro-4-(trifluoromethoxy)phenyl)-2-methoxyethyl)-6-oxo-1,6-dihydropyrimidine-4-carboxamide], for which the inhibition at 1 µM turned out to be 98%.

For `COC[C@@H](NC(=O)c1cc(=O)[nH]c(-c2ccccc2)n1)c1ccc(OC(F)(F)F)c(F)c1` [Example 87, N-((1S)-1-(3-fluoro-4-(trifluoromethoxy)phenyl)-2-methoxyethyl)-6-oxo-2-phenyl-1,6-dihydropyrimidine-4-carboxamide], the inhibition at 1 µM is 98%.

For `COC[C@@H](NC(=O)c1cc(=O)[nH]c(-c2ccccn2)n1)c1ccc(OC(F)(F)F)c(F)c1` [Example 88, N-((1S)-1-(3-fluoro-4-(trifluoromethoxy)phenyl)-2-methoxyethyl)-6-oxo-2-(pyridin-2-yl)-1,6-dihydropyrimidine-4-carboxamide], the inhibition at 1 µM turned out to be 92%.

In the case of `CC(C)(C)c1nc(C(=O)N[C@@H](c2ccc(OC(F)(F)F)c(F)c2)C(C)(C)O)cc(=O)[nH]1` [Example 95, 2-tert-butyl-N-(1-(3-fluoro-4-(trifluoromethoxy)phenyl)-2-hydroxy-2-methylpropyl)-6-oxo-1,6-dihydropyrimidine-4-carboxamide], the inhibition at 1 µM turned out to be 104%.

Take `CC(C)(O)[C@@H](NC(=O)c1cc(=O)[nH]c(C2CC2)n1)c1ccc(OC(F)(F)F)c(F)c1` [Example 96, 2-cyclopropyl-N-((1S)-1-(3-fluoro-4-(trifluoromethoxy)phenyl)-2-hydroxy-2-methylpropyl)-6-oxo-1,6-dihydropyrimidine-4-carboxamide]: the inhibition at 1 µM amounted to 94%.

On to `CC(C)(O)[C@@H](NC(=O)c1cc(=O)[nH]c(-c2ccccn2)n1)c1ccc(OC(F)(F)F)c(F)c1` [Example 102, N-((1S)-1-(3-fluoro-4-(trifluoromethoxy)phenyl)-2-hydroxy-2-methylpropyl)-6-oxo-2-(pyridin-2-yl)-1,6-dihydropyrimidine-4-carboxamide], for which the inhibition at 1 µM worked out at 102%.

As to `COC[C@@H](NC(=O)c1cc(=O)[nH]c(C2(C)CC2)n1)c1ccc(OC(F)(F)F)c(F)c1` [Example 103, N-((1S)-1-(3-fluoro-4-(trifluoromethoxy)phenyl)-2-methoxyethyl)-2-(1-methylcyclopropyl)-6-oxo-1,6-dihydropyrimidine-4-carboxamide], the inhibition at 1 µM came out at 108%.

With `COC[C@@H](NC(=O)c1cc(=O)[nH]c(-c2ccc(OC)cn2)n1)c1ccc(OC(F)(F)F)c(F)c1` [Example 105, N-((1S)-1-(3-fluoro-4-(trifluoromethoxy)phenyl)-2-methoxyethyl)-2-(5-methoxypyridin-2-yl)-6-oxo-1,6-dihydropyrimidine-4-carboxamide], the inhibition at 1 µM came out at 104%.

Consider `COC[C@@H](NC(=O)c1cc(=O)[nH]c(-c2cccs2)n1)c1ccc(OC(F)(F)F)c(F)c1` [Example 107, N-((1S)-1-(3-fluoro-4-(trifluoromethoxy)phenyl)-2-methoxyethyl)-6-oxo-2-(2-thienyl)-1,6-dihydropyrimidine-4-carboxamide], for which the inhibition at 1 µM worked out at 97%.
